Columns and labels:
[1] = Plasma protein binding (PPB), equilibrium dialysis, mouse plasma; type: in vitro ADME; conditions: 5 h at 37° C., read-out: Plasma protein binding (Bound %) Mouse (converted)
Protocol: The experiment is intended to determine plasma protein binding (PPB) data of the test compounds disclosed herein.
In the PPB experiment, the final administration matrix contained the test compound or a reference compound with a concentration of 1 μM and DMSO with a content of 0.2%.
Collecting samples in initial time: 25 μL of the matrix containing the compound was added into a blank 96-well collecting plate, and the plate was stored at −20° C.
An equilibrated dialysis device was prepared. 100 μL of buffer was added to the receiving side of the equilibrium dialysis plate. Then 100 μL of the administration matrix containing the compound or the reference compound was added into an administration side of the equilibrium dialysis plate. The prepared equilibrium dialysis plate was placed in a 37° C. shaker to be shaken for 5 h at 60 rpm.
Sample was prepared at the end of cultivation (5 h): Preparing sample in the receiving side: 25 μL of sample from a receiving side was taken out and placed in a 96-well sample collecting plate, and 25 μL of a corresponding matrix (blank plasma) was added for mixing: 200 μL of ACN containing an internal standard was added, shaken for 10 minutes at 600 rpm, and centrifuged at 5594 g for 15 min.
Preparing sample in the administration side: 25 μL of the sample containing test compound and reference compound from the administration side was taken out and 25 μL of a blank buffer was added for mixing; 200 μL of ACN containing an internal standard was added, shaken for 10 minutes at 600 rpm, and centrifuged at 5594 g for 15 min.
Preparing sample in initial time: the sample containing test compound and reference compound was re-melted at 37° C. in initial time and then mixed with the corresponding matrix (blank buffer) in the same volume (25 μL); 200 μL of ACN containing an internal standard was added, shaken for 10 minutes at 600 rpm, and centrifuged at 5594 g for 15 min.
After all the samples were centrifuged, 50 μL of a supernatant was taken and added into 50 μL of ultrapure water for mixing, and the samples were sent to liquid chromatography-mass spectrometry.

[2] = molecular target: T1, CYP2D6 (Homo sapiens, UniProt P10635); assay: CYP450 inhibition in human liver microsomes, CYP2D6; type: in vitro ADME; conditions: pooled (mixed) human liver microsomes, probe dextromethorphan; human liver microsomes, dextromethorphan; read-out: CYP2D6 IC50
T1 construct: co-incubated at 7 concentrations with human liver microsomes and five probe substrates; tissue Corning (USA); host or cells: mixed (pooled) human liver microsomes
Protocol: (§1) This study was intended to investigate the inhibitory effect of the test compounds on 5 major enzymes in human P450 superfamily, CYP1A2, 2C9, 2C19, 2D6 and 3A4-M. The mixed human liver microsomes used in this assay were purchased from Corning (USA). The test compound (compound 14) was co-incubated at 7 concentrations with human liver microsomes and five probe substrates (phenacetin for CYP1a2, diclofenac for CYP2C9, mephenytoin for CYP2C19, dextromethorphan for CYP2D6, midazolam for CYP3A4-M, mixed). The reaction was initiated by adding coenzyme NADPH, and terminated by adding acetonitrile containing internal standard. After the proteins were precipitated, the supernatant was centrifuged. The characteristic metabolites in the supernatant (acetaminophen for CYP1A2, 4-hydroxydiclofenac for CYP2C9, 4-hydroxymephenytoin for CYP2C19, dextrorphan for CYP2D6, 1-hydroxymidazolam for CYP3A4-M) were analyzed by LC-MS/MS. The influence of the test compounds on production of the characteristic metabolites was finally analyzed on the basis of the data obtained. A selective inhibitor (ketoconazole for CYP3A4-M) may be used as positive control. All samples were tested in duplicate.

[3] = molecular target: T2, CYP1A2 (Homo sapiens, UniProt P05177); assay: CYP450 inhibition in human liver microsomes, CYP1A2; type: in vitro ADME; conditions: pooled (mixed) human liver microsomes, probe phenacetin
T2 construct: co-incubated at 7 concentrations with human liver microsomes and five probe substrates; tissue Corning (USA); host or cells: mixed (pooled) human liver microsomes
T2 sequence (P05177 1-516): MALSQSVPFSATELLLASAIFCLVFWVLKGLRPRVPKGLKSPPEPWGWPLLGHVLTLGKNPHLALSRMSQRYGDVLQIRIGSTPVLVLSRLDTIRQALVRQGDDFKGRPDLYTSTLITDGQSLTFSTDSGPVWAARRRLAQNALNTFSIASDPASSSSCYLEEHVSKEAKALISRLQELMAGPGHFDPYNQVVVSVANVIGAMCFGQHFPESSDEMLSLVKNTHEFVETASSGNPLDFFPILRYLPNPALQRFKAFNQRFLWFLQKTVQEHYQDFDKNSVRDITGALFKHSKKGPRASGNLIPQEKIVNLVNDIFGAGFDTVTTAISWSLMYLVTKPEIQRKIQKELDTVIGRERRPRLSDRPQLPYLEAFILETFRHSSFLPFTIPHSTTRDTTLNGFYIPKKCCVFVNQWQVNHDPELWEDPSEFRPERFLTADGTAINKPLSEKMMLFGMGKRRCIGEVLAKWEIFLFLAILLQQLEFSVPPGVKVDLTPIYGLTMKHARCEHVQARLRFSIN
Protocol: as §1

[4] = molecular target: T3, human IRAK1 (Homo sapiens, UniProt P51617); assay: IRAK1 MSA (Mobility-Shift Assay) at Km concentration of ATP; type: biochemical; conditions: for IC50: read-out: IRAKI IC50; for IRAKI IC50 (nM)/ IRAK4 IC50 (nM): selectivity ratio IRAK1 to IRAK4
T3 construct: purchased Cama (so in the source)
Protocol: This assay evaluated the inhibitory effect of the compounds on human IRAK1 activity with the same materials as in Test Example 1.
A recombinant fusion protein of N-terminal GST (glutathione-S-transferase) and human IRAK1 was used as enzyme (GST-IRAK1, kinase IRAK1, Cama) at a final concentration of 3 nM: ATP (Sigma) was at a final concentration of 97 μM; the substrates used for the kinase reaction were 5-FAM (5-carboxyfluorescein)-labeled polypeptide (5-FAM-[…]-COOH) and substrate peptide FAM-P8 (GL Biochem) at final concentrations of 5 μM.
In this assay, 500 μM stock solutions of the compounds were prepared in 100% DMSO, and serially 4-fold diluted to the 10th concentration gradient with 100% DMSO, followed by a 10-fold dilution in the compound buffer (50 mM HEPES, pH 7.5, 0.00015% Brij-35) to give intermediate dilutions of the compounds at a final concentration of 10 μM−0.04 nM containing 10% DMSO. 5 μL of the intermediate dilution was transferred into a black 384-well plate.
IRAK1 was diluted to 7.5 nM in the kinase buffer (50 mM HEPES, pH 7.5, 0.00015% Brij-35, 2 mM DTT). 10 μL of the IRAK1 dilution was transferred to the 384-well plate and co-incubated with the compound for 10-15 min.
The substrate and ATP were diluted to 12.5 μM and 242.5 μM with reaction buffer (50 mM HEPES, pH 7.5, 0.00015% Brij-35, 10 mM MgCl2), respectively. 10 μL of the dilution was transferred to a 384-well plate and incubated at 28° C. for 1 h. The reaction was terminated by adding 25 μL of 50 mM EDTA to the 384-well plate.
The inhibition of IRAK1 by the compounds was calculated by measuring the rate of phosphorylated substrate using a Caliper EZ Reader (PerkinElmer) and the IC50 was calculated by XL-fit software.

T3 sequence (P51617 whole entry): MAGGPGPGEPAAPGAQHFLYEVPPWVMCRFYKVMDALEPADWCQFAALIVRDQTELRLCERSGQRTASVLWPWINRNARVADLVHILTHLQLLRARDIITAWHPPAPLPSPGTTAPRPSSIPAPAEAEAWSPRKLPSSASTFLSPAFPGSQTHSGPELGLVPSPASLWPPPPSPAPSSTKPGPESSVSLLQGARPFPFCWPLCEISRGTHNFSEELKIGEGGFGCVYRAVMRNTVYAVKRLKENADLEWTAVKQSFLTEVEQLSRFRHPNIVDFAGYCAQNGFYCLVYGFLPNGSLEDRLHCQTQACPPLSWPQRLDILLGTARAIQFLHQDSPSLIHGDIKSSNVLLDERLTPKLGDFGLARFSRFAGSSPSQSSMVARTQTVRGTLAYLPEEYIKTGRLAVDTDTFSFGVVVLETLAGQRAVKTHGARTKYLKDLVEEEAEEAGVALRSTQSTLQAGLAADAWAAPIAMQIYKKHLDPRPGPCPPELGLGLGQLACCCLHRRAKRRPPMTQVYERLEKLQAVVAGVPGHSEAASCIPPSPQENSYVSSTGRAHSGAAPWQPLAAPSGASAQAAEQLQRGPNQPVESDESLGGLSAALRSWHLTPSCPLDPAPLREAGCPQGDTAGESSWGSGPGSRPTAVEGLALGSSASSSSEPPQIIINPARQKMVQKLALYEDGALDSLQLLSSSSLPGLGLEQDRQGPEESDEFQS
T1 sequence (P10635 whole entry): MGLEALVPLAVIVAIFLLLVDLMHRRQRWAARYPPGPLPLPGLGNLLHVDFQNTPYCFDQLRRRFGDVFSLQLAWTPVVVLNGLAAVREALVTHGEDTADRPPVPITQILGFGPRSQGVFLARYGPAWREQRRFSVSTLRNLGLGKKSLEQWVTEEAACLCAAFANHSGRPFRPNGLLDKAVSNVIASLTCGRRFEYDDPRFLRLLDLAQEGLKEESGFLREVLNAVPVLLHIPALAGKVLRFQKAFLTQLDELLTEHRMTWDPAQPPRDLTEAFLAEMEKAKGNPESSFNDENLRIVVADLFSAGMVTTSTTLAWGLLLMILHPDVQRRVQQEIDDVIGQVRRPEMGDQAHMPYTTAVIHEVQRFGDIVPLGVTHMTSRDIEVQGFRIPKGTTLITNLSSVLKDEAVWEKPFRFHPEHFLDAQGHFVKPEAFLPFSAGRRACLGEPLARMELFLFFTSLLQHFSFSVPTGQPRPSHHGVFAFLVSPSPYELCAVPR

| Compound | fraction unbound at 5 h, 1 μM [1] | IC50 [2] | IC50 [3] | IC50 [4] | IRAKI IC50 (nM)/ IRAK4 IC50 (nM) [4] |
| --- | --- | --- | --- | --- | --- |
| COc1cc2nn([C@H]3CC[C@](C)(O)CC3)cc2cc1NC(=O)c1cccc(C)[n+]1[O-] [Compound 001, 2-((2-((1r,4r)-4-hydroxy-4-methylcyclohexyl)-6-methoxy-2H-indazol-5-yl)carbamoyl)-6-methylpyridine 1-oxide] | 0.201 | > 30 µM | > 30 µM | 4.04 µM | 673.2 |
| COc1cc2nn(CCC(C)(C)O)cc2cc1NC(=O)c1cccc(C)[n+]1[O-] [Compound 163, 2-((2-(3-hydroxy-3-methylbutyl)-6-methoxy-2H-indazol-5-yl)carbamoyl)-6-methylpyridine 1-oxide] | 0.162 | > 30 µM | > 30 µM | 2.99 µM | 130.1 |

Reference: US12617770B2, “IRAK inhibitor and preparation method therefor and use thereof” (WUHAN CREATERNA SCIENCE AND TECHNOLOGY CO., LTD., priority 2019, dated 2026)
